Values of other authors as cited in paper PMC9160825, “Structural and Functional Characterization of a Novel Scorpion Toxin that Inhibits NaV1.8 via Interactions With the DI Voltage Sensor and DII Pore Module” (Frontiers in Pharmacology, 2022).

How the values were obtained:
[1] = tested on: sodium channel DI voltage sensor; set-up: method as in Xiao et al., 2014; settings: ref Xiao et al., 2014
[2] = tested on: DRG nociceptive sensory neurons
From the text: In addition to modifying activation and fast inactivation gating, NaTx36 modifies slow inactivation gating in OtNaV1.8 by substantially shifting the voltage dependence to hyperpolarized membrane potentials (Figure 5B). Slow inactivation differs from fast inactivation in voltage- and time-dependent properties. While fast inactivation inhibits NaV excitability within milliseconds of action potential firing, slow inactivation develops in response to prolonged membrane depolarization (tens of seconds) or a series of action potentials, inhibiting NaV excitability over longer timescales (seconds to ...

house mouse NaV1.8 = settings: ref Zhang and Bean, 2021

Molecule: ProTx-II: spider toxin
- effect on gating pore currents via DI voltage sensor [1]: modify the voltage dependence of gating pore currents

Molecule: COc1cc(CNC(=O)CCCC/C=C/C(C)C)ccc1O [capsaicin]
- NaV1.8 TTX-R Na+ currents and action potential firing ([2]; sustained excitation of DRG membranes, ref Blair and Bean, 2003): caused a decrease in NaV1.8 TTX-R Na^+ currents and action potential firing

Molecule: C=C(C)[C@@H]1CCC(C)=C[C@H]1c1c(O)cc(CCCCC)cc1O [CBD, cannabidiol]
- repetitive action potential firing and DRG neuronal excitability ([2]; ref Zhang and Bean, 2021): reduces repetitive action potential firing and DRG neuronal excitability
- inhibition of house mouse NaV1.8 (house mouse NaV1.8): inhibited house mouse NaV1.8 in a state-dependent manner
